Test results: article PMC6727846 (Journal of medicinal chemistry, 2019)
Where two headings read alike, the source gives them in different places.

Tests used:
[1] = system: Plasmodium falciparum 3D7 (CQ-sensitive); assay: In vitro antimalarial SYBR Green I fluorescence assay; assay type: cell-based; settings: for effect of substitution on Pf 3D7 potency, in words: SAR statement in text
Pf plasmepsin II (PM-II) = Pf plasmepsin II (PM-II) (Plasmodium falciparum, UniProt Q8I6V3); assay: biochemical
[2] = system: Plasmodium falciparum Dd2 (multi-drug resistant); assay: In vitro antimalarial SYBR Green I fluorescence assay; assay type: cell-based
PM-IX = molecular target: T1, PM-IX (Plasmodium falciparum, UniProt Q8ILG2); assay type: cell-based; settings: western blot, substrate processing; data not shown
T1 sequence (Q8ILG2 1-627): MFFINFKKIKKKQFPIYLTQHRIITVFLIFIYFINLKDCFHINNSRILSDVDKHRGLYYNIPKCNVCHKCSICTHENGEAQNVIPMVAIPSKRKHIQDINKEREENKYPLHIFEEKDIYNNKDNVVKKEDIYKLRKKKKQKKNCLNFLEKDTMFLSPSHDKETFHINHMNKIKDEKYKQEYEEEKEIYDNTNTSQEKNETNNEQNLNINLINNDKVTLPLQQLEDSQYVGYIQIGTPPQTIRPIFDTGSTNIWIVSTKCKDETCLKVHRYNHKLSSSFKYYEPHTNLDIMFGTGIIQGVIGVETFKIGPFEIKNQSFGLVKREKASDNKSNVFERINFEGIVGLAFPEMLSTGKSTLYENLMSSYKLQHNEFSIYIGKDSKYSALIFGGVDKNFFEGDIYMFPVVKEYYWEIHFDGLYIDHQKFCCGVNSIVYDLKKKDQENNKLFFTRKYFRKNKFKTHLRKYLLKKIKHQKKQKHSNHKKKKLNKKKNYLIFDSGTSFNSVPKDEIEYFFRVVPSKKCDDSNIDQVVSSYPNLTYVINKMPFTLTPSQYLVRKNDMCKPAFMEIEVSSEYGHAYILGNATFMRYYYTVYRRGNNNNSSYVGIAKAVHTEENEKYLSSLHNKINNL

[3] = Mouse liver microsome metabolic stability; settings: in words
Pf PM-V = Pf PM-V (Plasmodium falciparum, UniProt Q8I6Z5); assay type: cell-based; settings: knockdown assay; data not shown
Cytotoxicity selectivity = assay type: cell-based
PM-X = PM-X (Plasmodium falciparum, UniProt Q8IAS0); assay type: cell-based; settings: western blot, substrate processing; data not shown
[4] = Plasmodium falciparum, 3D7, 72 h, read-out: Pf 3D7 IC50
[5] = Plasmodium falciparum, 3D7, read-out: Pf 3D7 IC50 (side-by-side with CQ)

Sequence of Pf plasmepsin II (PM-II) (Q8I6V3 125-453): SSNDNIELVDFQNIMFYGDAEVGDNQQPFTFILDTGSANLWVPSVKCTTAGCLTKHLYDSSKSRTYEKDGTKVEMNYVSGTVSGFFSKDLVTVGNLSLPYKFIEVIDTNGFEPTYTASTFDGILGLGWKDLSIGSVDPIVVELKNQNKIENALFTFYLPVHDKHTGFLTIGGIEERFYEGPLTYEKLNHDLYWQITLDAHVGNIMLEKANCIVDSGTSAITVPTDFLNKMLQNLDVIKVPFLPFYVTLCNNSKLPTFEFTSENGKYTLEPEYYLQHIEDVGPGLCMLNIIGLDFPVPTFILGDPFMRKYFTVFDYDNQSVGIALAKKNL
Sequence of Pf PM-V (Q8I6Z5 whole entry): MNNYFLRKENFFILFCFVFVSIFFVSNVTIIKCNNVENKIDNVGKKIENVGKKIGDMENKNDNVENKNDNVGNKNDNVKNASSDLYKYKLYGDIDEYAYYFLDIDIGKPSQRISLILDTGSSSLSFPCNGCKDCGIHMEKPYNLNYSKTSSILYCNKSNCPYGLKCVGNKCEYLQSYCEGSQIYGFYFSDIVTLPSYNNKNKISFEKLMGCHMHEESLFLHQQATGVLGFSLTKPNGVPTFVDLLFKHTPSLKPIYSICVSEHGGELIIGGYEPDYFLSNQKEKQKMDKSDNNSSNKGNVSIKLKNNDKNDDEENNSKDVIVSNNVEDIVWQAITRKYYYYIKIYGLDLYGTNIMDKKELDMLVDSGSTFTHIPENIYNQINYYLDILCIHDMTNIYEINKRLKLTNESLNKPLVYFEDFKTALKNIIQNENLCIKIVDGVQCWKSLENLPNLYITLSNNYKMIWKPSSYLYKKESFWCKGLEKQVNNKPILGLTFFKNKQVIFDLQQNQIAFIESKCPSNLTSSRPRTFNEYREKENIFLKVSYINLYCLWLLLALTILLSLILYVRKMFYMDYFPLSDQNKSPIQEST
Sequence of PM-X (Q8IAS0 222-573): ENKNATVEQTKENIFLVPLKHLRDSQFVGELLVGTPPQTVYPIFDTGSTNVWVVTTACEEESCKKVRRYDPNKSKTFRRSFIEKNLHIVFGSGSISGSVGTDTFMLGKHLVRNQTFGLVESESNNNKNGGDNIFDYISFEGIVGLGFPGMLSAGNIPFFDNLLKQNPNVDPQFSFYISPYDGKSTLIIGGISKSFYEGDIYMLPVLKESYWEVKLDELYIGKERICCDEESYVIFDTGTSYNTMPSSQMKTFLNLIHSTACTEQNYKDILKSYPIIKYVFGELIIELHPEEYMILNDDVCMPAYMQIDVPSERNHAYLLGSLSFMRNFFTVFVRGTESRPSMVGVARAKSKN

With `CN(C)c1ccc(CNC(=O)[C@@H]2CNC[C@H]2c2ccc(Oc3ccccc3)cc2)cc1` [compound 30] the “effect of substitution on Pf 3D7 potency, in words” value (“effect of substitution” below) [1] was “tolerated” and the IC50 (Pf plasmepsin II (PM-II)) was greater than 10 µM.

`CCN(CC)c1ccc(CNC(=O)[C@@H]2CNC[C@H]2c2ccc(C(F)(F)F)cc2)cc1` [compound 16] gave an IC50 (Pf plasmepsin II (PM-II)) greater than 10 µM.

`CN(C)c1ccc(CNC(=O)[C@H]2CNC[C@@H]2c2ccc(C(F)(F)F)cc2)cc1` [compound 14] showed an IC50 (Pf plasmepsin II (PM-II)) greater than 10 µM.

With `CN(C)c1ccc(CNC(=O)[C@H]2CNC[C@@H]2c2cnc(C(F)(F)F)nc2)cc1` [compound 35] the “effect of substitution” value [1] was “modest erosion of potency”.

In the case of `Cc1ccc(CNC(=O)[C@@H]2CNC[C@H]2c2ccc(C(F)(F)F)cc2)cc1` [compound 12], the IC50 (Pf plasmepsin II (PM-II)) is reported as greater than 10 µM.

Work on `CN(C)c1ccc(CNC(=O)[C@@H]2CNC[C@H]2c2ccc(C(F)(F)F)c(F)c2)cc1` [compound 24] yielded an IC50 (Pf plasmepsin II (PM-II)) greater than 10 µM.

For `C[C@@H]1CC[C@H]2[C@@H](C)C(=O)O[C@@H]3O[C@@]4(C)CC[C@@H]1[C@]32OO4` [artemesinin, reference compound], the IC50 [1, 4] was 0.033 ± 0.0006 µM.

`C[C@H](NC(=O)[C@H]1CNC[C@@H]1c1ccc(C(F)(F)F)cc1)c1ccc(N(C)C)cc1` [54b, (+)-(3R,4S)-N-[(1S)-1-[4-(dimethylamino)phenyl]ethyl]-4-[4-(trifluoromethyl)phenyl]pyrrolidine-3-carboxamide] gave an EC50 ([2]; DD2, read-out: EC50 against drug resistant Dd2 strain) of 0.021 µM, an IC50 [1, 4] of 0.051 µM and an EC50 ([1]; Plasmodium falciparum, 3D7, read-out: EC50 against drug sensitive Plasmodium falciparum 3D7) of 0.046 µM. For the same compound, the IC50 [1, 5] was 0.046 ± 0.006 µM.

In the case of `C[C@@H](NC(=O)[C@H]1CNC[C@@H]1c1ccc(C(F)(F)F)nc1)c1ccc(N(C)C)cc1` [compound 55, (+)-(3R,4S)-N-[(1R)-1-[4-(dimethylamino)phenyl]ethyl]-4-[6-(trifluoromethyl)pyridin-3-yl]pyrrolidine-3-carboxamide], the “reduction / loss in potency relative to parent analog” value ([1]; Pf 3D7, SAR comparison stated in text) is reported as greater than 30 fold.

In the case of `COc1ccc(CNC(=O)[C@@H]2CNC[C@H]2c2ccc(C(F)(F)F)cc2)cc1` (racemic) [compound 6], the “inhibition of PM-IX” value (PM-IX) is reported as “inactive”, the “metabolic stability profile in mouse liver microsomes” value [3] is reported as “improved” and the “inhibition of Pf PM-V” value (Pf PM-V) is reported as “inactive”. The “increase in potency relative to H (13)” value ([1]; Pf 3D7, amide benzyl ring SAR) was 10 fold, the IC50 [1, 4] was 0.385 µM and the selectivity ratio (Cytotoxicity selectivity) was 100. The “inhibition of PM-X” value (PM-X) was “inactive”.

Compound `CCN(CC)CCCC(C)Nc1ccnc2cc(Cl)ccc12` (stereo not drawn) [chloroquine, reference compound] has an IC50 ([2]; DD2, read-out: Pf Dd2 IC50 (side-by-side with CQ)) of 0.196 ± 0.014 µM, an IC50 [1, 4] of 0.054 ± 0.0004 µM and an IC50 [1, 5] of 0.038 ± 0.002 µM.

For `CN(C)c1ccc(CNC(=O)[C@H]2CNC[C@@H]2c2ccc(C(F)(F)F)nc2)cc1` (racemic) [compound 34], the IC50 [1, 4] was 0.23 µM, the “effect of substitution” value [1] was “without loss in potency” and the IC50 (Pf plasmepsin II (PM-II)) was greater than 10 µM.

In the case of `CN(C)c1ccc(CNC(=O)[C@@H]2CNC[C@H]2c2ccc(C(F)(F)F)c(Cl)c2)cc1` [compound 26], the IC50 (Pf plasmepsin II (PM-II)) is reported as greater than 10 µM.
